{"source": "paper PMC6109075", "about": "“Characterization of membrane penetration and cytotoxicity of C9orf72-encoding arginine-rich dipeptides” (Scientific Reports, 2018)", "key": {"NSC34 cells [1]": {"tested_on": "NSC34 cells", "experiment": "Penetration of FITC-conjugated DRPs into NSC34 cells", "assay_type": "cell-based, mouse", "settings": "fluorescence intensity"}, "HEK293 cells": {"tested_on": "HEK293 cells", "experiment": "Confocal imaging of live or fixed/permeabilized HEK293 cells treated with FITC-labeled CPPs", "assay_type": "cell-based, human", "settings": "for entry into fixed/permeabilized cells: HEK293 cells after fixation/permeabilization, 10 μM FITC-peptide", "method": "HEK293 cells were treated with 10 μM of FITC-labeled CPPs for 1 hr in combination with Nucblue live dye and then washed with PBS twice. The images were obtained by FV10 confocal microscopy (Olympus, Japan) or LSM710 confocal microscopy (Zeiss, Germany).\nFor RNAse A treatment, the HEK293 cells, fixed and permeabilized, were incubated with 10 μg/ml of recombinant RNAse A for 1 hr at 37 °C, followed by treatment with 10 μM of FITC-labeled peptides for 30 min. The cells were then washed with PBS twice and imaged with a confocal microscopy."}, "Hela cells": {"tested_on": "Hela cells", "experiment": "Peptide penetration assay, Hela cells at different pH (imaging)", "assay_type": "cell-based, human", "settings": "PBS pH6.0, pH7.4, pH8.0, 2 μM FITC-peptide, 1 hr", "method": "For imaging, Hela cells were washed twice with phosphate buffered saline (PBS) (pH7.4) and then incubated with PBS of different pH (pH6.0, pH7.4 and pH8.0) containing 2 μM of FITC-(PR)20 or FITC-R12 for 1 hr, followed by washing with PBS twice. For quantification, HEK293 cells were incubated with 10 μM FITC-(PR)20 in 10% FBS-DMEM for 30 min at 4 °C or 37 °C. The cells were washed twice with PBS and then re-suspended in PBS. The fluorescent signal was measured by a plate reader TECAN infinite F200."}, "EGFR (Homo sapiens)": {"target": "EGFR (Homo sapiens) (UniProt P00533)", "settings": "cited from earlier work"}, "[2]": {"experiment": "Functional assay of (PR)12 stability after incubation in culture medium", "assay_type": "in vitro ADME", "settings": "20 µM (PR)12-FITC, 2 hr with live HEK293 cells in DMEM-10%FBS, conditioned medium transferred to fixed/permeabilized HEK293 cells, read-out nucleolar accumulation"}, "NSC34 cells [3]": {"tested_on": "NSC34 cells", "experiment": "LDH release assay in NSC34 cells", "assay_type": "cell-based, mouse", "settings": "24 hr, N = 6", "method": "LDH assay was performed with Cytotoxicity LDH Assay Kit-WST from Wako (Japan) following the manufacture’s protocol. Briefly, mouse neuronal NSC34 cells or human fibroblasts were plated on a 96-well plate at 2 × 10^4 cells/well and then treated with the indicated concentration of peptide for 24 hr (NSC34 cells) or 48 hr (fibroblasts) before measurement of LDH release. The absorbance was measured by iMark microplate absorbance reader (Biorad)."}, "NSC34 cells [4]": {"tested_on": "NSC34 cells", "experiment": "Cytotox glo assay in NSC34 cells", "assay_type": "cell-based, mouse", "settings": "24 hr, N = 6", "description": "Anti-B23/nucleophosmin antibody was purchased from Cell signaling technology (Danvers, MA). RNAse A was obtained from Qiagen (Hilden, Germany). 1-Step Human Coupled IVT kit, oleic acid, poly-A RNA, Prolong Gold with DAPI and Nucblue live reagent were purchased from ThermoFisher Scientific (Waltham, MA). Cytotoxicity LDH Assay Kit-WST and octanol were obtained from Wako pure chemicals (Japan). Cell Titer-Glo and Cell-tox glo kits were purchased from Promega (Madison, WI). TAMRA-labeled random 15mer RNA was synthesized by Fasmac (Japan). Anti-puromycin antibody was purchased from Millipore."}, "[5]": {"tested_on": "protein translation (Hela cell lysates)", "experiment": "In vitro translation (IVT) assay, turboGFP fluorescence", "assay_type": "biochemical, human", "settings": "cell-free IVT, 100 μM peptide, turboGFP cDNA and Hela cell lysates, 37 °C, read every 1 min, N = 3", "method": "IVT assay was performed with 1-step Human-Coupled IVT kit (ThermoFisher) following manufacturer’s protocol. Briefly, turboGFP cDNA and Hela cell lysates were mixed in a 96 white-well PCR plate in the presence or absence of 100 μM of each peptide and incubated at 37 °C. The fluorescence from translated turboGFP was measured by LightCycler (Roche lifescience) every 1 min."}, "[6]": {"experiment": "Peptides absorption assay (buffer / octanol containing oleic acid)", "assay_type": "physicochemical", "settings": "FITC-labeled peptide, buffers of different pH vs octanol containing 1% oleic acid (v/v), vortexed 5 min, fluorescence", "method": "All buffers used for the peptide absorption assay were prepared with 140 mM NaCl, 2.5 mM KCl, 5 mM HEPES, 5 mM glycine, and the final pH was adjusted with NaOH or HCl.\nThe assay to show the effect of pH in peptides absorption into a hydrophobic phase was performed as previously reported. […] Fifty microliter of the buffer-peptide mix and 50 μl of octanol containing 1% of oleic acid (OA) (v/v) were placed into a microtubes and vortexed for 5 min, followed by centrifugation at 2200 g briefly to separate the octanol phase and buffer phase. After separation, octanol phase containing OA and absorbed peptides were collected and the fluorescence was measured by a plate reader TECAN infinite F200 (Mannedorf, Switzerland)."}}, "note": "“Also recorded” adds a separate entry of the source. Ends that are not written are not given here. Peptide text beside a SMILES is read from it.", "data": [{"molecule": "N=C(N)NCCC[C@H](NC(=O)CNC(=O)[C@H](CCCNC(=N)N)NC(=O)CNC(=O)[C@H](CCCNC(=N)N)NC(=O)CNC(=O)[C@H](CCCNC(=N)N)NC(=O)CNC(=O)[C@H](CCCNC(=N)N)NC(=O)CNC(=O)[C@H](CCCNC(=N)N)NC(=O)CNC(=O)[C@H](CCCNC(=N)N)NC(=O)CNC(=O)[C@H](CCCNC(=N)N)NC(=O)CNC(=O)[C@H](CCCNC(=N)N)NC(=O)CNC(=O)[C@H](CCCNC(=N)N)NC(=O)CNC(=O)[C@H](CCCNC(=N)N)NC(=O)CNC(=O)[C@H](CCCNC(=N)N)NC(=O)CNC(=O)[C@H](CCCNC(=N)N)NC(=O)CNC(=O)[C@H](CCCNC(=N)N)NC(=O)CNC(=O)[C@H](CCCNC(=N)N)NC(=O)CNC(=O)[C@H](CCCNC(=N)N)NC(=O)CNC(=O)[C@H](CCCNC(=N)N)NC(=O)CNC(=O)[C@H](CCCNC(=N)N)NC(=O)CNC(=O)[C@H](CCCNC(=N)N)NC(=O)CNC(=O)[C@H](CCCNC(=N)N)NC(=O)CN)C(=O)O", "note": "[(GR)20]", "values": [{"measurement": "penetration into NSC34 cells", "setting": "NSC34 cells [1]", "value": "also entered the cells as well"}]}, {"molecule": "N=C(N)NCCC[C@H](NC(=O)[C@@H]1CCCN1C(=O)[C@H](CCCNC(=N)N)NC(=O)[C@@H]1CCCN1C(=O)[C@H](CCCNC(=N)N)NC(=O)[C@@H]1CCCN1C(=O)[C@H](CCCNC(=N)N)NC(=O)[C@@H]1CCCN1C(=O)[C@H](CCCNC(=N)N)NC(=O)[C@@H]1CCCN1C(=O)[C@H](CCCNC(=N)N)NC(=O)[C@@H]1CCCN1C(=O)[C@H](CCCNC(=N)N)NC(=O)[C@@H]1CCCN1C(=O)[C@H](CCCNC(=N)N)NC(=O)[C@@H]1CCCN1C(=O)[C@H](CCCNC(=N)N)NC(=O)[C@@H]1CCCN1C(=O)[C@H](CCCNC(=N)N)NC(=O)[C@@H]1CCCN1C(=O)[C@H](CCCNC(=N)N)NC(=O)[C@@H]1CCCN1C(=O)[C@H](CCCNC(=N)N)NC(=O)[C@@H]1CCCN1C(=S)Nc1ccc2c(c1)C(=O)OC21c2ccc(O)cc2Oc2cc(O)ccc21)C(=O)O", "note": "[FITC-(PR)12] (HELM PEPTIDE1{[O=C1OC2(c3ccc(O)cc3Oc3cc(O)ccc32)c2ccc(NC(=S)[*:2])cc21].P.R.P.R.P.R.P.R.P.R.P.R.P.R.P.R.P.R.P.R.P.R.P.R}$$$$V2.0)", "values": [{"measurement": "entry into fixed/permeabilized cells", "setting": "HEK293 cells", "value": "entered the cells and accumulated to nucleoli"}]}, {"molecule": "N=C(N)NCCC[C@H](NC(=O)[C@@H]1CCCN1C(=O)[C@H](CCCNC(=N)N)NC(=O)[C@@H]1CCCN1C(=O)[C@H](CCCNC(=N)N)NC(=O)[C@@H]1CCCN1C(=O)[C@H](CCCNC(=N)N)NC(=O)[C@@H]1CCCN1C(=O)[C@H](CCCNC(=N)N)NC(=O)[C@@H]1CCCN1C(=O)[C@H](CCCNC(=N)N)NC(=O)[C@@H]1CCCN1C(=O)[C@H](CCCNC(=N)N)NC(=O)[C@@H]1CCCN1C(=O)[C@H](CCCNC(=N)N)NC(=O)[C@@H]1CCCN1C(=O)[C@H](CCCNC(=N)N)NC(=O)[C@@H]1CCCN1C(=O)[C@H](CCCNC(=N)N)NC(=O)[C@@H]1CCCN1C(=O)[C@H](CCCNC(=N)N)NC(=O)[C@@H]1CCCN1C(=O)[C@H](CCCNC(=N)N)NC(=O)[C@@H]1CCCN1C(=O)[C@H](CCCNC(=N)N)NC(=O)[C@@H]1CCCN1C(=O)[C@H](CCCNC(=N)N)NC(=O)[C@@H]1CCCN1C(=O)[C@H](CCCNC(=N)N)NC(=O)[C@@H]1CCCN1C(=O)[C@H](CCCNC(=N)N)NC(=O)[C@@H]1CCCN1C(=O)[C@H](CCCNC(=N)N)NC(=O)[C@@H]1CCCN1C(=O)[C@H](CCCNC(=N)N)NC(=O)[C@@H]1CCCN1C(=O)[C@H](CCCNC(=N)N)NC(=O)[C@@H]1CCCN1C(=O)[C@H](CCCNC(=N)N)NC(=O)[C@@H]1CCCN1C(=S)Nc1ccc2c(c1)C(=O)OC21c2ccc(O)cc2Oc2cc(O)ccc21)C(=O)O", "note": "[FITC-(PR)20] (HELM PEPTIDE1{[O=C1OC2(c3ccc(O)cc3Oc3cc(O)ccc32)c2ccc(NC(=S)[*:2])cc21].P.R.P.R.P.R.P.R.P.R.P.R.P.R.P.R.P.R.P.R.P.R.P.R.P.R.P.R.P.R.P.R.P.R.P.R.P.R.P.R}$$$$V2.0)", "values": [{"measurement": "entry into fixed/permeabilized cells", "setting": "HEK293 cells", "value": "entered the cells and accumulated to nucleoli"}, {"measurement": "penetration of the plasma membrane of live cells", "setting": "HEK293 cells; live HEK293 cells, 10 μM FITC-peptide added to culture medium", "value": "penetrated the plasma membrane and accumulated to nucleoli"}]}, {"molecule": "N=C(N)NCCC[C@H](NC(=O)[C@H](CCCNC(=N)N)NC(=O)[C@H](CCCNC(=N)N)NC(=O)[C@H](CCCNC(=N)N)NC(=O)[C@H](CCCNC(=N)N)NC(=O)[C@H](CCCNC(=N)N)NC(=O)[C@H](CCCNC(=N)N)NC(=O)[C@H](CCCNC(=N)N)NC(=O)[C@H](CCCNC(=N)N)NC(=O)[C@H](CCCNC(=N)N)NC(=O)[C@H](CCCNC(=N)N)NC(=O)[C@H](CCCNC(=N)N)NC(=S)Nc1ccc2c(c1)C(=O)OC21c2ccc(O)cc2Oc2cc(O)ccc21)C(=O)O", "note": "[FITC-R12]", "values": [{"measurement": "effect of extracellular pH on distribution of peptide into cells", "setting": "Hela cells", "value": "higher pH increased the distribution of FITC-labeled CPPs into the cells"}]}, {"molecule": "GE11", "values": [{"measurement": "Kd", "setting": "EGFR (Homo sapiens)", "value": 22, "unit": "nM"}]}, {"molecule": "PRPRPRPRPRPRPRPRPRPRPRPR [(PR)12]", "values": [{"measurement": "stability in the culture medium", "setting": "[2]", "value": "stable in the culture medium"}, {"measurement": "cytotoxicity, LDH release", "setting": "NSC34 cells [3]", "value": "did not show cytotoxicity"}]}, {"molecule": "PRPRPRPRPRPRPRPRPRPRPRPRPRPRPRPRPRPRPRPR [(PR)20]", "values": [{"measurement": "cytotoxicity, LDH release", "setting": "NSC34 cells [3]", "value": "killed the cells; also recorded: exerted stronger cytotoxicity"}, {"measurement": "penetration into NSC34 cells", "setting": "NSC34 cells [1]", "value": "entered NSC34 cells more efficiently"}, {"measurement": "cytotoxicity, Cytotox glo luminescence", "setting": "NSC34 cells [4]", "value": "killed the cells"}]}, {"molecule": "amyloid β: amyloid β (40 a.a.), negative control peptide, from Peptide Institute", "values": [{"measurement": "inhibition of protein translation in vitro (tGFP fluorescence)", "setting": "[5]", "value": "did not see inhibitory effect"}]}, {"molecule": "human insulin: FITC-labeled recombinant human insulin (51 a.a.), non-permeable, from Sigma", "values": [{"measurement": "effect of pH on absorption of peptide into the octanol phase", "setting": "[6]", "value": "did not enhance the absorption"}]}]}
